Reference: patent US12522597B2, “Methods and compositions for modulating splicing” (Skyhawk Therapeutics, Inc., priority 2019, dated 2026)
Where two headings read alike, the source gives them in different places.

Columns and labels:
[1] = system: Huntingtin (HTT) transcripts; assay: Quantitative splicing assay (HTT), qPCR; format: cell-based; settings: Homo sapiens, GM04724 (CAG 70/20) Huntington's disease patient lymphoblasts, 24 h
Procedure: GM04724 (CAG 70/20) Huntington's disease patient lymphoblasts (Coriell) are plated in 96-wel v-bottom plates at 50,000 cells/well. Immediately after plating, cells are dosed with compound for 24 h at concentrations ranging from 2.5 uM to 0.15 nM (0.1% DMSO). Treated cells are lysed and cDNA synthesized using the Fast Advanced Cells-to-Ct kit (Thermofisher A35378) according to the manufacturer's instructions. 2 uL of each cDNA are used in qPCR reactions to confirm the compound-induced inclusion of a cryptic exon within intron 49 of the Huntingtin (HTT) transcripts. The qPCR reactions are prepared in 384-well plates in 10 uL volume, using TaqMan™ Fast Advanced Master Mix [ThermoFisher; 4444965] with primers and probes shown in the table below. Reactions are run in a Quant Studio 6 qPCR instrument with default settings.

mHTT protein = mHTT protein assay (2B7-MW1, Mesoscale Discovery); format: cell-based, human; settings: GM04724 (CAG 70/20) Huntington's disease patient lymphoblast cells, 48 hours, 2B7-MW1 MSD; read-out: HTT Potency - Protein EC50 mHTT (average)
How it was run: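 mHTT levels were read with the 2B7-MW1 antibody pair (N17 and polyQ epitopes) on MSD after 48 h dosing, 10 μM–0.6 nM. Cells were GM04724 HD lymphoblasts (CAG 70/20). A replica plate was read by CTG for cell viability.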

[2] = system: MDR1-MDCK cell monolayers; assay: MDCK-MDR1 permeability assay (BBB penetration potential); format: in vitro ADME; settings: dog, MDCK-MDR1, 120 min, 5 μM, pH 7.4
Procedure: (§1) Each determination is performed in duplicate. […] Analytical conditions are outlined below.

MDR1 = assay: as above; format: in vitro ADME; settings: dog; for efflux ratio at 120 min, 5 μM: MDCK-MDR1, pH 7.4, MDCK-MDR1: Efflux; for Papp A→B at 120 min, 5 μM: MDCK-MDR1, pH 7.4, MDCK-MDR1: Papp A-B; for Papp B→A at 120 min, 5 μM: MDCK-MDR1, pH 7.4, MDCK-MDR1: Papp B-A
Procedure: as §1

[3] = qPCR HTTex49_50, read-out: HTT Potency - Splicing: E49-50 EC50 (average)
[4] = qPCR cryptic exon 49b inclusion, read-out: HTT Potency - Splicing: E49b EC50 (average)

SMILES	EC50 [1, 3]	EC50 [1, 4]	EC50 (mHTT protein)	MDCK-MDR1: % Recov A-B [2]	MDCK-MDR1: % Recov B-A [2]	efflux ratio at 120 min, 5 μM (MDR1)	Papp A→B at 120 min, 5 μM (MDR1)	Papp B→A at 120 min, 5 μM (MDR1)
Oc1cc(-c2ccn3ccnc3c2)ccc1-c1ccc(O[C@@H]2C[C@H]3CCC[C@H](N3)[C@@H]2F)nn1 (single isomer, unassigned) [83-ENT1]	501 to 10000 nM	501 to 10000 nM	101 to 500 nM	48%	64%	23	1.05 ×10⁻⁶ cm/s	23.8 ×10⁻⁶ cm/s
Oc1cc(-c2ccn3ccnc3c2)ccc1-c1ccc(O[C@H]2C[C@@H]3CCC[C@@H](N3)[C@H]2F)nn1 (single isomer, unassigned) [83-ENT2]	501 to 10000 nM	501 to 10000 nM	101 to 500 nM	47%	66%	12	0.77 ×10⁻⁶ cm/s	9.61 ×10⁻⁶ cm/s
Cc1cc(-c2ccc(-c3ccc(O[C@@H]4C[C@H]5CCC[C@H](N5)[C@@H]4F)nn3)c(O)c2)ccn1 (single isomer, unassigned) [88-ENT1]	16 to 50 nM	16 to 50 nM	16 to 50 nM	51%	64%	3	7.03 ×10⁻⁶ cm/s	22.1 ×10⁻⁶ cm/s
Cc1ncc(-c2ccc(-c3ccc(O[C@@H]4C[C@H]5CCC[C@H](N5)[C@@H]4F)nn3)c(O)c2)o1 (single isomer, unassigned) [93-ENT1]	16 to 50 nM	16 to 50 nM	16 to 50 nM	75%	78%	4	8.72 ×10⁻⁶ cm/s	38.7 ×10⁻⁶ cm/s
Cc1ncc(-c2ccc(-c3ccc(O[C@@H]4C[C@H]5CCC[C@H](N5)[C@@H]4F)nn3)c(O)c2)s1 (single isomer, unassigned) [96-ENT1]	16 to 50 nM	16 to 50 nM	16 to 50 nM	39%	72%	2	7.37 ×10⁻⁶ cm/s	15.2 ×10⁻⁶ cm/s
Cc1ncc(-c2ccc(-c3ccc(O[C@H]4C[C@@H]5CCC[C@@H](N5)[C@H]4F)nn3)c(O)c2)s1 (single isomer, unassigned) [96-ENT2]	16 to 50 nM	16 to 50 nM	16 to 50 nM	35%	67%	2	6.73 ×10⁻⁶ cm/s	11.6 ×10⁻⁶ cm/s
Cn1cc(-c2ccc(-c3ccc(O[C@@H]4C[C@H]5CCC[C@H](N5)[C@@H]4F)nn3)c(O)c2)oc1=O (single isomer, unassigned) [97-ENT1]	16 to 50 nM	16 to 50 nM	0.01 to 15 nM	83%	78%	14	3.67 ×10⁻⁶ cm/s	50.4 ×10⁻⁶ cm/s
Cn1cc(-c2ccc(-c3ccc(O[C@H]4C[C@@H]5CCC[C@@H](N5)[C@H]4F)nn3)c(O)c2)oc1=O (single isomer, unassigned) [97-ENT2]	16 to 50 nM	16 to 50 nM	0.01 to 15 nM	74%	82%	10	3.11 ×10⁻⁶ cm/s	32 ×10⁻⁶ cm/s
Oc1cc(-n2ccc(F)n2)ccc1-c1ccc(O[C@@H]2C[C@H]3CCC[C@H](N3)[C@@H]2F)nn1 (single isomer, unassigned) [115-ENT1]	0.01 to 15 nM	0.01 to 15 nM	16 to 50 nM	44%	70%	3	7.15 ×10⁻⁶ cm/s	20.3 ×10⁻⁶ cm/s
Oc1cc(-n2ccc(F)n2)ccc1-c1ccc(O[C@H]2C[C@@H]3CCC[C@@H](N3)[C@H]2F)nn1 (single isomer, unassigned) [115-ENT2]	16 to 50 nM	16 to 50 nM	0.01 to 15 nM	43%	67%	2	6.9 ×10⁻⁶ cm/s	12 ×10⁻⁶ cm/s
